How the values were obtained:
[1] = target: T1, endogenous ATX/lysoPLD activity in whole blood (Mus musculus, UniProt Q9R1E6); test: Inhibition of ATX activity in whole blood ex vivo (TOOS assay); format: biochemical; conditions: 2 h 37°C, TOOS with 1 mM LPC
T1 construct: from tissue; host or cells: mouse plasma / whole blood
Experimental: ATX/LysoPLD activity was assessed based on the amount of choline released from LPC with the use of TOOS (N-ethyl-N-(2-hydoroxy-3-sulfopropyl)-3-methylaniline) reagent. In this assay ATX-mediated LPC-liberated choline is oxidised by choline oxidase to betaine and hydrogen peroxide (H2O2). The latter in the presence of horseradish peroxidase reacts with TOOS and 4-aminoantipyrene (4-AAP) to form a pink quinoneimine dye measured at 555 nm. […]
The liberated choline was detected by adding 100 μl of a color mix containing 4-AAP and TOOS (0.3 mM), horseradish peroxidase (5.3 UnitmL^−1) and choline oxidase (2 UnitmL^−1). Absorbance was measured at 555 nm and data were analyzed using the statistical software package Prism 4.0 (Graphpad Software Inc, La Jolla, CA, USA). For each sample and control the absorbance was plotted against time and the slope (da/min) for the linear (steady-state) portion of each reaction profile was calculated. Absorbance units were converted to nmol of choline/min/ml by comparison with a choline standard curve or by use of the extinction coefficient for the quinoneimine dye according to the following equation: [drawing 1] […]
Venous blood from wild type mouse was collected in EDTA tubes. […] IC50 values using ATX activity and LPA levels were determined graphically as described above.

lymphocyte trafficking = system: lymphocyte trafficking; design: method as in PMID 23365076; conditions: cited from earlier work

Compound: CCCCCCCCCCCCCCCC(=O)OC[C@@H](O)CC(Br)P(=O)(O)O (stereo partly drawn) [BrP-LPA, 1-bromo-3(S)-hydroxy-4-(palmitoyloxy)butyl-phosphonate]
- IC50 [1]: 600 nM
- lymphocyte trafficking in draining lymph nodes (lymphocyte trafficking): reduce lymphocyte trafficking in draining lymph nodes

— paper PMC3726599, “A Metabolically-Stabilized Phosphonate Analog of Lysophosphatidic Acid Attenuates Collagen-Induced Arthritis” (PLoS ONE, 2013)
